Results: patent publication US8653069B2, “Aralkyl substituted piperidine or piperazine derivatives and their use for treating schizophrenia” (Jiangsu Hengyi Pharmaceutical Co., Ltd., priority 2008, dated 2014)
Where a name gives a salt, the structure may show the parent alone.

Biological target: T1, rD2R (Rattus norvegicus, UniProt P61169)
T1 construct: expressed in transfected cells; host or cells: CHO cells stably expressing rD2R (CHO-rD2)
Experiment: Antagonistic test of D2 receptor (cAMP radioimmunoassay, Forskolin + Dopamine, CHO-rD2 cells)
Assay type: cell-based
Conditions: 10 μM Forskolin + 10 μM Dopamine, cAMP generated
Procedure: An Antagonistic Test of D2 Receptor
CHO-rD2 cell is seeded on a 96-well plate at a concentration of 30,000 cells/well, and cultured overnight; each medicine is dissolved in a serum-free F12 culture media containing 100 μM of IBMX, and is added to the above cell for preculturing 30 minutes at 37° C.; thereafter a serum-free F12 culture media containing 10 μM of Forskolin and 10 μM of Dopamine is added and react for 8 minutes, and then 100 μl of pre-cooled 1M HClO4 is added to terminate the reaction. The reaction solution is allowed to stand on ice for 40 minutes, and thereto 20 μl of 2M K2CO3 is added to neutralize the reaction solution. The reaction solution is centrifuged at 3,000 rpm for 15 minutes at 4° C., and a KClO4 deposit is discarded. An amount of supernatant is diluted in 0.05M of acetic acid buffer, and the amount of generated cAMP is measured with radioimmunoassay method. […] See the kit's instructions for detailed steps. Two tubes under each concentration of each compound are measured, and each compound is subjected to two independent tests.
The ordinate of the dose-effect curve represents a reduced percentage of the amount of generated cAMP through antagonist of DA by the compound.

T1 sequence (P61169 whole entry): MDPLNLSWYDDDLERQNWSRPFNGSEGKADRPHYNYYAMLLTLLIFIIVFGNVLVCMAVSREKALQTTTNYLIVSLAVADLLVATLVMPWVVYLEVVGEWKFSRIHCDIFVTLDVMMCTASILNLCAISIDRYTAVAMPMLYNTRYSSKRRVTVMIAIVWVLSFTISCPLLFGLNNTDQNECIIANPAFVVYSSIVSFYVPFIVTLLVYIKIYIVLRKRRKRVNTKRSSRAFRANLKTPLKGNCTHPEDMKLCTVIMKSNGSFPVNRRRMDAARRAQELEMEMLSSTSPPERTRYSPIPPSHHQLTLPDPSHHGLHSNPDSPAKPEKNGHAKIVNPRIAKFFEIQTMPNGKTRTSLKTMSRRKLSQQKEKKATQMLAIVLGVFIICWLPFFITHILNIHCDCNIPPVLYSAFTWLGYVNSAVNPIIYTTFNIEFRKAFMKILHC

Compound | IC50 [nM]
O=C1Cc2ccc(OCCCCN3CCC(c4noc5cc(F)ccc45)CC3)cc2N1 [IV-1, 6-[4-(4-(3-(6-fluoro-benzisoxazolyl))-1-piperidinyl)-n-butoxy)-indoline-2-one] | 198000
O=C1CCc2ccc(OCCCCN3CCN(c4nsc5ccccc45)CC3)cc2N1 [III-1, 7-[4-(1,2-benzisothiazol-3-yl)-1-piperazinyl)-n-butoxy]-3,4-dihydro-2(1H)-quinolinone hydrochloride] | 56400

Biological target: T2, dopamine D2 receptor (Homo sapiens, UniProt P14416)
T2 construct: expressed in transfected cells; host or cells: CHO-hD2L cells (membrane preparation)
T2 sequence (P14416 whole entry): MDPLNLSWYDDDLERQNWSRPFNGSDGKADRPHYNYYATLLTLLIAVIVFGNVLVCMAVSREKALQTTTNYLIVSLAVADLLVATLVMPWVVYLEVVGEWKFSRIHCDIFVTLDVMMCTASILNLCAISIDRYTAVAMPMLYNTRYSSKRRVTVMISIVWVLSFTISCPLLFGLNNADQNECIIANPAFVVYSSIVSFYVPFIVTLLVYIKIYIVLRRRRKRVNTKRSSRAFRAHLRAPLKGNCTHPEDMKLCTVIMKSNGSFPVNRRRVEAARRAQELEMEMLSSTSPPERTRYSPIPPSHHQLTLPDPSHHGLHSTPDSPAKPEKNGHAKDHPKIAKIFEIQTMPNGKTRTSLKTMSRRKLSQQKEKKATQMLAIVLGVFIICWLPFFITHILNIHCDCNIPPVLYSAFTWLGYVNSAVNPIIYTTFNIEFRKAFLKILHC
Experiment: Dopamine D2 receptor-binding assay ([3H]Spiperone displacement)
Conditions: inhibition of binding of 0.4 nM [3H]Spiperone, CHO-hD2L film product, room temperature 120 minutes; read-out: IC50 (affinity to D2 receptor)
Procedure: A Dopamine D2 Receptor-Binding Assay
An isotope ligand for D2 receptor: [^3H]Spiperone (77.0 Ci/mmol); (+)Butaclamol; GF/C glass fiber media; a liposoluble scintillation solution; and the D2 receptor protein expressed by sf9 cells.
A binding assay of a film product of CHO-hD2L cells and [^3H]Spiperone is conducted in a 250 μl of 50 mM of Tris-HCl […] buffer (Ph=7.4) solution comprising 100 mM of NaCl, 1 mM of MgC12 and 1% of DMSO. A sample in duplicate containing compounds to be tested, 0.4 nM of [^3H]Spiperone and 12 ug of protein is maintained at room temperature for 120 minutes. The bound radioactive ligand is separated by flash filtration under reduced pressure using Whatman GF/B glass fiber filter pre-treated with 0.3% polyethylenelmine, and radioactivity maintained on the filter is measured using liquid scintillation spectrophotometry. The title compounds in the following examples are tested using the above test, which comprises first of all testing competitive inhibition rate of each compound at a concentration of 10 umol/L to binding of [^3H]Spiperone to D2 receptor through a rough screening; and compounds having inhibition rate higher than 95% are subjected to receptor binding assay under a series of concentrations to determine a half-inhibitory concentration (IC50, the concentration of a compound needed for inhibiting binding of 50% [^3H]Spiperone to D2 receptor). Two tubes under each concentration are measured, and each compound is subjected to two independent tests.

Compound | IC50 [nM]
O=C1CCc2ccc(OCCCCN3CCC(c4noc5ccccc45)CC3)cc2N1 [II-4, 7-[(4-benzisoxazolyl-1-piperidinyl)-n-butoxy]-3,4-dihydro-2(1H)-quinolinone hydrochloride] | 23.6
O=C1Cc2ccc(OCCCCN3CCC(c4noc5cc(F)ccc45)CC3)cc2N1 [IV-1, 6-[4-(4-(3-(6-fluoro-benzisoxazolyl))-1-piperidinyl)-n-butoxy)-indoline-2-one] | 38.9
O=C1CCc2ccc(OCCCCN3CCN(c4noc5ccccc45)CC3)cc2N1 [I-3, 7-[4-(4-(benzisoxazolyl)-1-piperazinyl)-n-butoxy]-3,4-dihydro-2(1H)-quinolinone hydrochloride] | 99.3
O=C1CCc2ccc(OCCCCN3CCN(c4noc5cc(C(F)(F)F)ccc45)CC3)cc2N1 [I-5, 7-[4-(4-(6-trifluoromethyl-benzisoxazolyl)-1-piperazinyl)-n-butoxy]-3,4-dihydro-2(1H)-quinolinone hydrochloride] | 53.6
O=C1CCc2ccc(OCCCCCN3CCC(c4noc5cc(F)ccc45)CC3)cc2N1 [II-3, 7-[5-(4-(6-fluoro-benzisoxazolyl)-1-piperidinyl)-pentyloxy]-3,4-dihydro-2(1H)-quinolinone hydrochloride] | 202
O=C1CCc2ccc(OCCCCN3CCC(c4noc5ccc(F)cc45)CC3)cc2N1 [II-7, 7-[4-(4-(5-fluoro-benzisoxazolyl)-1-piperidinyl)-n-butoxy]-3,4-dihydro-2(1H)-quinolinone hydrochloride] | 12.6
O=C1CCc2ccc(OCCCCN3CCN(c4noc5cc(F)ccc45)CC3)cc2N1 [I-4, 7-[4-(4-(6-fluoro-benzisoxazolyl)-1-piperazinyl)-n-butoxy]-3,4-dihydro-2(1H)-quinolinone hydrochloride] | 10.2
COc1cccc2c(N3CCN(CCCCOc4ccc5c(c4)NC(=O)CC5)CC3)nsc12 [III-5, 7-[4-(7-methoxy-1,2-benzisothiazolyl)-1-piperazinyl]-n-butoxy-3,4-dihydro-2(1H)-quinolinone hydrochloride] | 15.8
COc1cccc2snc(N3CCN(CCCCOc4ccc5c(c4)NC(=O)CC5)CC3)c12 [III-7, 7-[4-(4-methoxy-1,2-benzisothiazolyl)-1-piperazinyl]-n-butoxy]-3,4-dihydro-2(1H)-quinolinone hydrochloride] | 168
O=C1CCc2ccc(OCCCCN3CCN(c4noc5cc(Cl)ccc45)CC3)cc2N1 [I-1, 7-[4-(4-(6-chloro-benzisoxazolyl)-1-piperazinyl)-n-butoxy]-3,4-dihydro-2(1H)-quinolinone hydrochloride] | 25.7
O=C1CCc2ccc(OCCCCN3CCN(c4nsc5ccccc45)CC3)cc2N1 [III-1, 7-[4-(1,2-benzisothiazol-3-yl)-1-piperazinyl)-n-butoxy]-3,4-dihydro-2(1H)-quinolinone hydrochloride] | 5.23
O=C1CCc2ccc(OCCCCN3CCN(c4noc5cc(O)ccc45)CC3)cc2N1 [I-8, 7-[4-(4-(6-hydroxy-benzisoxazolyl)-1-piperazinyl)-n-butoxy]-3,4-dihydro-2(1H)-quinolinone hydrochloride] | 157
O=C1CCc2ccc(OCCCN3CCC(c4noc5cc(F)ccc45)CC3)cc2N1 [II-2, 7-[3-(4-(6-fluoro-benzisoxazolyl)-1-piperidinyl)-n-propoxy]-3,4-dihydro-2(1H)-quinolinone hydrochloride] | 16.2
O=C1CCc2ccc(OCCCN3CCN(c4nsc5ccccc45)CC3)cc2N1 [III-2, 7-[3-(1,2-benzisothiazolyl)-1-piperazinyl]-n-propoxy]-3,4-dihydro-2(1H)-quinolinone hydrochloride] | 76.8
O=C1CCc2ccc(OCCCCN3CCN(c4noc5ccc(Br)cc45)CC3)cc2N1 [I-11, 7-[4-(4-(5-bromo-benzisoxazolyl)-1-piperazinyl)-n-butoxy]-3,4-dihydro-2(1H)-quinolinone hydrochloride] | 77.8
O=C1CCc2ccc(OCCCCN3CCC(c4noc5cc(O)c(O)cc45)CC3)cc2N1 [II-10, 7-[4-(5,6-dihydroxy-benzisoxazolyl)-1-piperidinyl)-n-butoxy]-3,4-dihydro-2(1H)-quinolinone hydrochloride] | 45.6
Cc1ccc2onc(N3CCN(CCCCOc4ccc5c(c4)NC(=O)CC5)CC3)c2c1 [I-7, 7-[4-(4-(5-methyl-benzisoxazoly)-1-piperazinyl)-n-butoxy]-3,4-dihydro-2(1H)-quinolinone hydrochloride] | 290
COc1ccc2onc(N3CCN(CCCCOc4ccc5c(c4)NC(=O)CC5)CC3)c2c1 [I-9, 7-[4-(4-(5-methoxy-benzisoxazolyl)-1-piperazinyl)-n-butoxy]-3,4-dihydro-2(1H)-quinolinone hydrochloride] | 25
O=C1CCc2ccc(OCCCCN3CCC(c4noc5cc(Cl)ccc45)CC3)cc2N1 [II-5, 7-[4-(4-(6-chloro-benzisoxazolyl)-1-piperidinyl)-n-butoxy]-3,4-dihydro-2(1H)-quinolinone hydrochloride] | 15.8
O=C1CCc2ccc(OCCCCN3CCN(c4noc5ccc(Cl)cc45)CC3)cc2N1 [I-2, 7-[4-(4-(5-chloro-benzisoxazolyl)-1-piperazinyl)-n-butoxy]-3,4-dihydro-2(1H)-quinolinone hydrochloride] | 56.8
COc1ccc2snc(N3CCN(CCCCOc4ccc5c(c4)NC(=O)CC5)CC3)c2c1 [III-6, 7-[4-(5-methoxy-1,2-benzisothiazolyl)-1-piperazinyl]-n-butoxy]-3,4-dihydro-2(1H)-quinolinone hydrochloride] | 15
COc1ccc2c(N3CCN(CCCCOc4ccc5c(c4)NC(=O)CC5)CC3)nsc2c1 [III-4, 7-[4-(6-methoxy-1,2-benzisothiazolyl)-1-piperazinyl]-n-butoxy]-3,4-dihydro-2(1H)-quinolinone of hydrochloride] | 17.9
COc1ccc2c(N3CCN(CCCCOc4ccc5c(c4)NC(=O)CC5)CC3)noc2c1Br [I-12, 7-[4-(4-(7-bromo-6-methoxy-benzisoxazolyl)-1-piperazinyl)-n-butoxy]-3,4-dihydro-2(1H)-quinolinone hydrochloride] | 10.2
COc1cc2onc(C3CCN(CCCCOc4ccc5c(c4)NC(=O)CC5)CC3)c2cc1OC [II-8, 7-[4-(4-(5,6-dimethoxy-benzisoxazolyl)-1-piperidinyl)-n-butoxy]-3,4-dihydro-2(1H)-quinolinone hydrochloride] | 23.8
COc1ccc2onc(C3CCN(CCCCOc4ccc5c(c4)NC(=O)CC5)CC3)c2c1 [II-6, 7-[4-(4-(5-methoxy-benzisoxazolyl)-1-piperidinyl)-n-butoxy]-3,4-dihydro-2(1H)-quinolinone hydrochloride] | 277
6-[4-(4-(3-(6-fluoro-benzisoxazolyl))-1-piperazinyl)-n-butoxy]-(1H)-indole [IV-3] | 12.3
O=C1CCc2ccc(OCCCCN3CCC(c4noc5ccc(O)cc45)CC3)cc2N1 [II-9, 7-[4-(5-hydroxy-benzisoxazolyl)-1-piperidinyl)-n-butoxy]-3,4-dihydro-2(1H)-quinolinone hydrochloride] | 78.8

Tested on: not listed separately
Experiment: in vivo
Conditions: mouse, po

Compound | LD50 [mg/kg]
O=C1Cc2cc(CCN3CCN(c4nsc5ccccc45)CC3)c(Cl)cc2N1 [ziprasidone] | 1600
